Test results published in patent publication US20240343727A1, “PYRIDAZINONE OR PYRIDINONE COMPOUNDS, PREPARATION METHODS AND USES THEREOF” (InventisBio Co., Ltd., priority 2021, published 2024).
Read-outs that look alike come from different tables or passages of the source.

Legend:
[1] = test system: NCI-H1373 cells; assay: Inhibition of cancer cell growth in NCI-H1373 cells (Cell-titer Glo, 6 days); assay type: cell-based; details: read-out: H1373 Cell Proliferation IC50
Protocol: Biological Assay Example B: Inhibition of cancer cell growth in NCI-H1373 cells by PARP7 inhibitors
NCI-H1373 cells were cultured in RPMI 1640 medium supplemented with 10% fetal bovine serum, 100 U/mL penicillin and 100 ug/mL streptomycin in a 37° C., 5% CO2 incubator. Fifteen hundred cells were seeded into each well of 96-well plate in RPMI1640 medium containing 10% fetal bovine serum and incubated overnight. Serial diluted compounds for each well were added at a final DMSO concentration of 0.5% and a day zero plate was collected for analysis. Compounds were incubated with the cells for 6 days. Cell growth was assessed using Cell-titer Glo reagent (Promega #G^7572). The luminescence signal was collected on Tecan Spark plate reader. Cell growth is determined by correcting for the cell count on day zero. Inhibition rate is calculated with the formula of % inhibition=100*(DMSO control-compounds)/(DMSO control-Blank). Cell growth inhibition IC50 is calculated with the equation of Y-Bottom+ (Top-Bottom)/(1+10^((LogIC50−X) *Hill Slope)).

[2] = target: T1, PARP7 (Homo sapiens, UniProt Q7Z3E1); assay: PARP7 TR-FRET assay (binding, displacement of biotinylated Probe A); details: 6 nM PARP7, 2 nM Probe A, 25° C., 30 min
T1 sequence (Q7Z3E1 1-657): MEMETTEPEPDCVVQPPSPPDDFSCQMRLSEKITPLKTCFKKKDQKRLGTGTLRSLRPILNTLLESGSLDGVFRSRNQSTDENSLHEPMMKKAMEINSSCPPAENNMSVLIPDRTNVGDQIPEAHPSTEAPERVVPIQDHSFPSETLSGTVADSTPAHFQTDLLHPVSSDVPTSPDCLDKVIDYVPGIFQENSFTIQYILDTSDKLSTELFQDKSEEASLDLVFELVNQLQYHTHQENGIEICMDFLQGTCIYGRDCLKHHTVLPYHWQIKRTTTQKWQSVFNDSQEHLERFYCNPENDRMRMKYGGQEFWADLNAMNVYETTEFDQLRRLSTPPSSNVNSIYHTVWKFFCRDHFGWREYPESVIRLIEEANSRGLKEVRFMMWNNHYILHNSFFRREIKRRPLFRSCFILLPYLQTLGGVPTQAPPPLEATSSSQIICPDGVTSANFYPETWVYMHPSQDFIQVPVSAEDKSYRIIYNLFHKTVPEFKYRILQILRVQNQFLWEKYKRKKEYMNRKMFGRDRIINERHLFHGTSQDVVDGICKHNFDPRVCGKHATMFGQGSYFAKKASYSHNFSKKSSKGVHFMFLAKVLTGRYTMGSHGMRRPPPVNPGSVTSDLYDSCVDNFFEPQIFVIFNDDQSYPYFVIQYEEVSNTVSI
In short: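 His-tagged PARP7 at 6 nM was preincubated with compound and 2 nM biotinylated Probe A for 30 min at 25° C (HEPES pH 8.0, NaCl, BSA, DTT, Tween20). Europium-streptavidin/ULight-anti-His FRET was read as the 665/615 nm ratio after a further 30 min. IC50 was fitted from % inhibition normalised to vehicle and blank.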

[3] = test system: tumor; details: according to the description in clinicaltrials.gov (NCT04053673); cited from earlier work

Structure (SMILES)	IC50 ([1]; Homo sapiens, NCI-H1373, 144 h) [nM]	IC50 [2] [nM]	IC50 [1] [nM]	tumor growth in animal studies [3]
CNC(=O)c1ccc2c(c1)N(c1cc(C(F)(F)F)c(=O)[nH]n1)CC(CC(=O)N1CCN(c3ncc(C(F)(F)F)cn3)CC1)O2 (single isomer, unassigned) [Compound 324]	> 1000	< 100		
O=C(CC1CN(c2cc(C(F)(F)F)c(=O)[nH]n2)c2cc(C(=O)N3CCC3)ccc2O1)N1CCN(c2ncc(C(F)(F)F)cn2)CC1 (single isomer, unassigned) [Compound 336]		< 100	< 100	
O=C(CC1CN(c2cc(C(F)(F)F)c(=O)[nH]n2)c2cc(C(=O)N3CCC3)ccc2O1)N1CCN(c2ncc(C(F)(F)F)cn2)CC1 (single isomer, unassigned) [Compound 337]		< 100	> 1000	
N#Cc1ccc2c(c1)N(c1cc(C(F)(F)F)c(=O)[nH]n1)CC(CC(=O)N1CCN(c3ccc(C(F)(F)F)cn3)CC1)O2 (single isomer, unassigned) [Compound 346]	> 1000	< 100		
Cc1c(N2C[C@@H](CC(=O)N3CCN(c4ncc(C(F)(F)F)cn4)CC3)O[C@@H](C)C2)n[nH]c(=O)c1C(F)(F)F (stereo in doubt) [Compound 40]	100 to 1000	< 100		
Cc1c(Oc2cccc(C(=O)N3CCN(c4ncc(C(F)(F)F)cn4)CC3)c2)n[nH]c(=O)c1C(F)(F)F [Compound 15]	100 to 1000	< 100		
O=C(c1cccc(Oc2cc(C(F)(F)F)c(=O)[nH]n2)c1)N1CCN(c2ncc(C(F)(F)F)cn2)CC1 [Compound 16]	> 1000	< 100		
Cc1c(Oc2ccnc(C(=O)N3CCN(c4ncc(C(F)(F)F)cn4)CC3)c2)n[nH]c(=O)c1C(F)(F)F [Compound 21]	100 to 1000	< 100		
Cc1c(Oc2ccc(Cl)c(C(=O)N3CCN(c4ncc(C(F)(F)F)cn4)CC3)c2)n[nH]c(=O)c1C(F)(F)F [Compound 26]	> 1000	< 100		
Cc1c(Oc2cccc(C(=O)N3CCN(c4ccc(C#N)cn4)CC3)c2)n[nH]c(=O)c1C(F)(F)F [Compound 27]	100 to 1000	< 100		
O=C(C[C@@H]1CN(c2cc(C(F)(F)F)c(=O)[nH]n2)c2ccccc2O1)N1CCN(c2ncc(C(F)(F)F)cn2)CC1 [Compound 34]	< 100	< 100		
O=C(C[C@H]1CN(c2cc(C(F)(F)F)c(=O)[nH]n2)c2ccccc2O1)N1CCN(c2ncc(C(F)(F)F)cn2)CC1 [Compound 35]	> 1000	100 to 1000		
O=C(CC[C@@H]1CCCN1c1n[nH]c(=O)c2ccccc12)N1CCN(c2ncc(C(F)(F)F)cn2)CC1 [Compound 48]	< 100	< 100		
COC[C@@H]1C[C@@H](OCC(=O)N2CCN(c3ncc(C(F)(F)F)cn3)CC2)c2n[nH]c(=O)c(C(F)(F)F)c2O1 [Compound 57]	< 100	< 100		
Cc1c(Oc2cc(C(=O)N3CCN(c4ncc(C(F)(F)F)cn4)CC3)ccc2F)n[nH]c(=O)c1C(F)(F)F [Compound 63]	100 to 1000	< 100		
O=C(c1cccc(Oc2n[nH]c(=O)c(C(F)(F)F)c2CO)c1)N1CCN(c2ncc(C(F)(F)F)cn2)CC1 [Compound 71]	> 1000	100 to 1000		
Cn1ccc2c(=O)[nH]nc(Oc3cccc(C(=O)N4CCN(c5ncc(C(F)(F)F)cn5)CC4)c3)c21 [Compound 73]	100 to 1000	< 100		
Cc1c(N2CCOc3ccc(C(=O)N4CCN(c5ncc(C(F)(F)F)cn5)CC4)cc32)n[nH]c(=O)c1C(F)(F)F [Compound 78]	100 to 1000	100 to 1000		
O=C(CC[C@@H]1CCCN1c1cc(C(F)(F)F)c(=O)[nH]n1)N1CCN(c2ncc(C(F)(F)F)cn2)CC1 [Compound 86]	< 100	< 100		

Structure (SMILES)	IC50 ([1]; Homo sapiens, NCI-H1373, 144 h) [nM]	IC50 [2] [nM]	IC50 [1] [nM]	tumor growth in animal studies [3]
C#Cc1ccc2c(c1)N(c1cc(C(F)(F)F)c(=O)[nH]n1)CC(CC(=O)N1CCN(c3ncc(C(F)(F)F)cn3)CC1)O2 (stereo not shown) [Compound 149]	< 100	< 100		
C[C@@H]1CC[C@@H](CCC(=O)N2CCN(c3ncc(C(F)(F)F)cn3)CC2)N1c1cc(C(F)(F)F)c(=O)[nH]n1 [Compound 156]	< 100	< 100		
COC1CC(Nc2c(Oc3cccc(C(=O)N4CCN(c5ncc(C(F)(F)F)cn5)CC4)c3)n[nH]c(=O)c2C(F)(F)F)C1 (stereo not shown) [Compound 168]	100 to 1000	< 100		
N#Cc1cnc(N2CCN(C(=O)c3cccc(Oc4n[nH]c(=O)c(C(F)(F)F)c4N4CC5(CCC5)C4)c3)CC2)nc1 [Compound 179]	< 100	< 100		
O=C(c1cccc(Oc2n[nH]c(=O)c(C(F)(F)F)c2N2CC3(CCC3)C2)c1)N1CCN(c2cnc(C(F)(F)F)cn2)CC1 [Compound 188]	< 100	< 100		
O=C(c1cccc(Oc2n[nH]c(=O)c(C(F)(F)F)c2N2CC3(CCC3)C2)c1)N1CCN(c2ncc(Cl)cn2)CC1 [Compound 199]	< 100	< 100		
N#Cc1ccc(N2CCN(C(=O)c3cccc(Oc4n[nH]c(=O)c(C(F)(F)F)c4N4CC5(CCCO5)C4)c3)CC2)nc1 [Compound 223]	100 to 1000	< 100		
O=C(c1cc(Oc2n[nH]c(=O)c(C(F)(F)F)c2N2CC3(CCC3)C2)ccn1)N1CCN(c2ncc(C(F)(F)F)cn2)CC1 [Compound 229]	< 100	< 100		
N#Cc1cnc(N2CCN(C(=O)c3cncc(Oc4n[nH]c(=O)c(C(F)(F)F)c4N4CC5(C4)CC(F)(F)C5)c3)CC2)nc1 [Compound 236]	100 to 1000	< 100		
C[C@@H]1CN(C(=O)c2cccc(Oc3n[nH]c(=O)c(C(F)(F)F)c3N3CC4(CCO4)C3)c2)CCN1c1ncc(C(F)(F)F)cn1 [Compound 252]	< 100	< 100		
O=C(c1cc(Oc2n[nH]c(=O)c(C(F)(F)F)c2N2CC3(CCC3)C2)ccn1)N1CCN(c2cnc(C(F)(F)F)cn2)CC1 [Compound 272]	< 100	< 100		
O=C(c1cncc(Oc2n[nH]c(=O)c(C(F)(F)F)c2N2CC(C3CC3)C2)c1)N1CCN(c2ncc(Cl)cn2)CC1 [Compound 280]	100 to 1000	< 100		
C[C@@H]1CN(C(=O)c2cncc(Oc3n[nH]c(=O)c(C(F)(F)F)c3N3CC4(C3)CC(F)(F)C4)c2)CCN1c1ncc(Cl)cn1 [Compound 321]	< 100	< 100		
O=C(c1cc(Oc2n[nH]c(=O)c(C(F)(F)F)c2N2CC3(C2)CC(F)(F)C3)ccn1)N1CCN(c2cnc(C(F)(F)F)cn2)CC1 [Compound 331]	< 100	< 100		
CCOC1CN(c2c(Oc3ccnc(C(=O)N4CCN(c5ncc(C(F)(F)F)cn5)[C@H](C)C4)c3)n[nH]c(=O)c2C(F)(F)F)C1 [Compound 339]	< 100	< 100		
CC(C)(O)c1cnc(N2CCN(C(=O)c3cccc(Oc4n[nH]c(=O)c(C(F)(F)F)c4N4CC5(CCC5)C4)c3)CC2)nc1 [Compound 349]	< 100	< 100		
C[C@@H]1CN(C(=O)c2cc(Oc3n[nH]c(=O)c(C(F)(F)F)c3N3CC4(CCC4)C3)ccn2)CCN1c1cnc(C(F)(F)F)cn1 [Compound 353]	< 100	< 100		
C[C@@H](COCCC(=O)N1CCN(c2ncc(C(F)(F)F)cn2)CC1)Nc1cn[nH]c(=O)c1C(F)(F)F [RBN2397]				inhibit tumor growth
